Test results: patent US11767330B2, “Citrate salt, pharmaceutical compositions, and methods of making and using the same” (Foghorn Therapeutics Inc., priority 2021, dated 2023)
“Also recorded” adds a separate entry of the source.

Columns and labels:
[1] = test system: SYO-1 human biphasic synovial sarcoma tumor cells; assay: SYO-1 xenograft tumor growth (Example 11); format: in vivo; conditions: 1 mg/kg, i.p., daily, 3 weeks, NOD SCID mice
Protocol: (§1) Method: NOD SCID mice (Beijing Anikeeper Biotech, Beijing) were inoculated subcutaneously on the right flank with the single cell suspension of SYO-1 human biphasic synovial sarcoma tumor cells (5×106) in 100 μL Dulbecco's Modified Eagle Medium (DMEM) with 10% fetal bovine serum (FBS). The mice were randomized into either control group [10% dimethyl sulfoxide (DMSO), 40% polyethylene glycol (PEG400) and 50% water], or treatment group D1 when the mean tumor size reached about 117 mm^3. Mice were dosed daily through intraperitoneal (i.p.) route over the course of 3 weeks. All dose volumes were adjusted by body weights in terms of mg/kg.

[2] = Tolerability by % body weight change (Example 11); format: in vivo; conditions: 1 mg/kg, i.p., daily, 3 weeks
Protocol: as §1

BRD9 = target: T1, BRD9 (Homo sapiens, UniProt Q9H8M2); assay: BRD9 degradation in synovial sarcoma tumor in vivo, western blot (Example 12); parameters: Tumors were lysed with 1×RIPA lysis buffer; from tissue; host or cells: SYO-1 xenograft tumours in BALB/c Nude mice; species or system mice; conditions: 1 mg/kg, i.p., 4 weeks; tumors 8, 72, 168 hours post last dose
T1 sequence (Q9H8M2 1-597): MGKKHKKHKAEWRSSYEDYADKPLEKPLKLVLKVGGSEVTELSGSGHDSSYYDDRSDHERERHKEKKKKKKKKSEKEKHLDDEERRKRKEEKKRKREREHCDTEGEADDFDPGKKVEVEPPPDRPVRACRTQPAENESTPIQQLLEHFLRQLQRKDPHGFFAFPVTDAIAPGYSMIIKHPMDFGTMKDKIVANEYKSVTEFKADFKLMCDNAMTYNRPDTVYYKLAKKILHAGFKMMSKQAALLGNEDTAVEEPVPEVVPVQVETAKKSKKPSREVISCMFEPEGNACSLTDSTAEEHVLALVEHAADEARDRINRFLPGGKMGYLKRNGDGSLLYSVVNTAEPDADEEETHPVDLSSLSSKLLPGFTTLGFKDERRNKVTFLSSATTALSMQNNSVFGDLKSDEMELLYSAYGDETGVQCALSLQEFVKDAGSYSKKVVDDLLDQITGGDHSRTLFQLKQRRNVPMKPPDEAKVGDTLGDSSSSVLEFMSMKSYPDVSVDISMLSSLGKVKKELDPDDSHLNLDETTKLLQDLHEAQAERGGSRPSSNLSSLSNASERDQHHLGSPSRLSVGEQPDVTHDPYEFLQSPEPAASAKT
Protocol: Method: Mice were treated with D1, 1 mg/kg, i.p. for 4 weeks. Mice were then euthanized, and tumors were collected at 8 hours, 72 hours, and 168 hours post last dose. Tumors were lysed with 1×RIPA lysis buffer (Boston BioProducts, BP-115D) with protease and phosphatase protein inhibitor (Roche Applied Science #04906837001 & 05892791001). Equal amounts of lysate (30 μg) were loaded in 4-12% Bis-Tris Midi Protein Gels in 1×MOPS buffer; samples ran at 120 V for 120 minutes. Protein was transferred to membrane with TransBlot at 250 mA for 150 minutes, and then membranes were blocked with Odyssey blocking buffer for 1 hour at room temperature. Membranes were hybridized overnight in cold room with primary antibodies. Images acquired using Li—COR imaging system (Li—COR Biotechnology, Lincoln, Nebr.).

For COc1cc(-c2cn(C)c(=O)c3cnc(N4CCC4)cc23)cc(OC)c1CN1CCC(CN2CCC3(CC2)CN(c2ccc4c(c2)C(=O)N(C2CCC(=O)NC2=O)C4)C3)CC1 (racemic) [Compound D1, 3-[6-(7-[[1-([4-[6-(azetidin-1-yl)-2-methyl-1-oxo-2,7-naphthyridin-4-yl]-2,6-dimethoxyphenyl]methyl)piperidin-4-yl]methyl]-2,7-diazaspiro[3.5]nonan-2-yl)-1-oxo-3H-isoindol-2-yl]piperidine-2,6-dione], the tumor growth [1] was “tumor growth inhibition”, the “tolerability based on % body weight change” value [2] was “well tolerated” and the “BRD9 level in tumor (western blot)” value (BRD9) was “BRD9 inhibition; also recorded: complete degradation of BRD9 target up to 168 hours after dose”.
